Source: US10011598B2, “Small molecules targeting repeat r(CGG) sequences” (THE SCRIPPS RESEARCH INSTITUTE, priority 2012, dated 2018)
Entries after “also recorded” stand apart in the source; their conditions may differ. Read-outs that look alike come from different tables or passages of the source.

Tests used:
[1] = test system: Bcl-x exon 2 alternative splicing; assay: Bcl-x mini-gene splicing in COS7 cells (FXTAS model), RT-PCR; format: cell-based; conditions: for Bcl-x splicing: COS7 cells expressing r(CGG)60
Protocol: (§1) In order to determine if a improves FXTAS-associated splicing defects in vivo, a cell culture model system was used. Briefly. COS7 cells were grown as monolayers in 24- or 96-well plates in growth medium (1×DMEM, 10% FBS, and 1× GlutaMax (Invitrogen)). After the cells reached 90-95% confluency, they were transfected using Lipofectamine 2000 reagent (Invitrogen) or PugenHD (Roche) per the manufacturer's standard protocol. Equal amounts of a plasmid expressing a 60 CGG repeats and a mini-gene of interest (SMN2 or Bcl-x) were used. Approximately 5 h post-transfection, the transfection cocktail was removed and replaced with growth medium containing 1a. After 16-24 h, the cells were lysed in the plate, and total RNA was harvested with a Qiagen RNAEasy kit or a GenElute kit (Sigma). An on-column DNA digestion was completed per the manufacturer's recommended protocol.
(§2) A sample of RNA was subjected to reverse transcription-polymerase chain reaction (RT-PCR) using 5 units of AMV Reverse Transcriptase from Life Sciences or Superscript II (Invitrogen). Approximately 300 ng were reverse transcribed, and 150 ng were subjected to PCR. RT-PCR products were observed after 25-30 cycles of: 95° C. for 1 min: 55° C. for 1 min; 72° C. for 2 min and a final extension at 72° C. for 10 min. The products were separated by polyacrylamide or agarose gel electrophoresis, stained, and imaged using a Typhoon phosphorimager. The splicing isoforms were quantified using QuantityOne software (BioRad). Table S-2 lists the RT-PCR primers used for each mini-gene construct.

r(CGG)^exp nuclear foci = assay: Nuclear foci by fluorescence in situ hybridization (FISH) in COS7 cells; format: cell-based; conditions: COS7 cells transfected with r(CGG)60 and GFP
Protocol: FISH experiments were completed as previously described. (8) Briefly, COS7 cells were plated onto glass coverslips and co-transfected with plasmids encoding for r(CGG)60 and GFP. The cells were fixed in 4% paraformaldehyde in PBS (pH 7.4) for 15 min and washed three times with PBS. Then, they were permeabilized with 0.5% Triton X-100 in PBS. Prior to addition of the FISH probe, the cells were pre-hybridized in a 2×SSC buffer containing 40% formamide and 10 mg/mL BSA for 30 min. The coverslips were hybridized for 2 h in 2×SSC buffer supplemented with 40% formamide, 2 mM vanadyl ribonucleoside, 60 μg/mL tRNA, 30 μg/mL BSA, and 0.75 μg (CCG)8-Cy3 DNA oligonucleotide probe. The cells were washed twice in 2×SSC containing 50% formamide and then twice in 2×SSC. Following FISH the coverslips were incubated for 10 min in 2×SSC containing 1 μg/mL DAPI and rinsed twice in 2×SSC. The coverslips were then mounted in Pro-Long media and examined using either a simple fluorescence microscope (Leica) or a Leica DM4000 B confocal microscope.

r(CGG)12-DGCR8Δ complex = assay: TR-FRET protein displacement assay; format: biochemical; conditions: for Percentage displacement at 25 μM: 25 μM compound, DGCR8Δ displaced from r(CGG)12; for inhibition of the r(CGG)12-DGCR8Δ interaction, in words: comparison within the tested compounds
[2] = test system: cTNT alternative splicing; assay: cTNT mini-gene control splicing in COS7 cells; format: cell-based; conditions: for effect on cTNT splicing: no concentration stated, not regulated by Sam68
Description: (§3) Control experiments were also completed to determine the specificity of 1a; that is if it affects the splicing of RNAs not controlled by Sam68. In these experiments, a PLEKHH2 (15) or cardiac troponin T (cTNT) (32) mini-gene was used, as their alternative splicing is not regulated by Sam68. […] Thus, the effect of 1a on pre-mRNA splicing appears to be specific to the splicing of pre-mRNAs regulated by Sam68.

[3] = test system: PLEKHH2 alternative splicing; assay: PLEKHH2 mini-gene control splicing in COS7 cells; format: cell-based; conditions: for effect on PLEKHH2 splicing: no concentration stated, not regulated by Sam68
Description: as §3

[4] = test system: SMN2 exon 7 alternative splicing; assay: SMN2 mini-gene splicing in COS7 cells (FXTAS model), RT-PCR; format: cell-based; conditions: for SMN2 pre-mRNA splicing defects, in words: figure legends
Description: Encouraged by our TR-FRET assay results, we tested the bioactivity of the optimal dimeric small molecule, 2E-5NMe, by using a FXTAS cellular model. In the FXTAS cell model, r(CGG)^exp binds and sequesters Sam68, a pre-mRNA splicing regulator. Sequestration of Sam68 causes its inactivation and dysregulation of alternative pre-mRNA splicing. In particular, the alternative splicing of exon 7 of the survival motor neuron-2 pre-mRNA (SMN2; involved in maintenance of motor neurons and mRNA processing) is dysregulated. Exon 7 is included too frequently when r(CGG)^exp is expressed, ˜70% of time as compared to normal cells in which exon 7 has an inclusion rate of only ˜40% (FIG. 14). Experiments were completed as previously described. Briefly. COS7 cells were co-transfected with plasmids expressing an SMN2 alternative splicing reporter and r(CGG)60. The transfection cocktail was removed, and the cells were incubated with fresh medium containing serially diluted concentrations of compound for 24 h. Total RNA was harvested, and splicing patterns were analyzed via RT-PCR. Remarkably, at […] concentration, 2E-5NMe restores alternative pre-mRNA splicing patterns back to the wild type. The monomer 1a required 10 times higher concentration for the same effect.
as §1, §2

[5] = biological target: RNA containing one 5′CGG/3′GGC motif; assay: RNA-binding assay via Hoechst 33258 dye displacement; conditions: RNA with one 5′CGG/3′GGC motif; Table 1
Protocol: Dissociation constants were determined using an in-solution, fluorescence-based assay (37-45). RNA was annealed in DNA buffer (8 mM Na2HPO4, pH7.0, 185 mM NaCl, 0.1 mM EDTA, 40 μg/mL BSA) at 60° C. for 5 min and allowed to slowly cool to room temperature. The annealed RNA was then titrated into DNA buffer containing 1000 nM Hoechst 33258. Fluorescence signal was recorded using a Bio-Tek FLX-800 plate reader, which was equipped with excitation filter at 360/40 nm and emission filter at 460/40 nm. The change in fluorescence intensity as a function of RNA concentration was fit to the following equation (eq. 3): (37, 46) I=I0+0.5Δϵ{([Ht0]+[RNA]0+Kt)−(([Ht]0+[RNA]0+Kt)^2−4[Ht]0[RNA]0)^0.5} (eq. 3) where I is the observed fluorescence intensity, I0 is the fluorescence intensity in the absence of RNA, Δϵ is the difference between the fluorescence intensity in the absence of RNA and in the presence of infinite RNA concentration and is in units of M^−1. […]
Ligands 1a-1d were then added to compete for binding to the RNA (1 μM) in presence of Hoechst 33258 (1 μM). Reduction in fluorescence of Hoechst 33258 was measured using a Bio-Tek FLX-800 plate reader as a function of ligand concentration (1a-1d) and was fit to the following equation (eq. 4): (41) […]

DGCR8Δ = assay: Competition dialysis; format: binding; conditions: 0.7 μM ligand, 2 μM protein
Protocol: (§4) Competition dialysis was completed as previously described (31). Briefly, 2 μM RNA or protein was transferred into Slide-a-Lyzer MINI dialysis units with a molecular weight cut-off of 2,000 (Thermo Scientific), and the units were placed into a solution of 0.7 μM ligand. Two blank units containing only buffer were used to monitor equilibration by checking the absorbance at the peak wavelength. After the blank units reached equilibrium, sodium dodecyl sulfate (SDS) was added to a final concentration of 1%, and the absorbance was measured. This absorbance was used to determine total ligand concentration (Ct). The concentration of the dialysate (free ligand concentration. Cf) was determined analogously. The bound ligand concentration (Cb) was then determined using equation 2: Cb=Ct−Cf (eq. 2) where Cb, Ct, and Cf are concentrations of bound, total, and free ligand, respectively. RNA-Binding Assays Via Dye Displacement.

fully paired RNAs = assay: Competition dialysis; format: binding; conditions: 0.7 μM ligand, 2 μM RNA
Protocol: as §4

r(CGG)12 = assay: Competition dialysis; format: binding; conditions: 0.7 μM ligand, 2 μM RNA
Protocol: as §4

[6] = cells that do not express r(CGG)60
[7] = 62 times of competitor tRNA, Table 2, read-out: IC50 at the presence of 62 times of competitor, tRNA
[8] = disruption of r(CGG)12-DGCR8Δ complex, Table 1, read-out: IC50
[9] = inhibition of r(CGG)12-DGCR8Δ complex, Table 2, read-out: IC50
[10] = read-out: IC50 for disruption of r(CGG)12-DGCR8Δ complex / inhibition of protein binding
[11] = 500 μM, splicing not regulated by Sam68

| Structure (SMILES) | r(CGG)12-DGCR8Δ complex formation, % (r(CGG)12-DGCR8Δ complex; 1 μM compound, Table 2) [%] | r(CGG)12-DGCR8Δ complex formation, % (r(CGG)12-DGCR8Δ complex; 10 μM compound, Table 2) [%] | Percentage displacement at 25 μM (r(CGG)12-DGCR8Δ complex; Table 1) [%] | IC50 (r(CGG)12-DGCR8Δ complex; [7]) [µM] | IC50 (r(CGG)12-DGCR8Δ complex; [8]) [µM] | IC50 (r(CGG)12-DGCR8Δ complex; [9]) [µM] | IC50 (r(CGG)12-DGCR8Δ complex; [10]) [µM] | effect on cTNT splicing [2] | effect on PLEKHH2 splicing [3] | SMN2 pre-mRNA splicing defects, in words ([4]; COS7 cells expressing r(CGG)60) | Kd [5] [µM] | inhibition of the r(CGG)12-DGCR8Δ interaction, in words (r(CGG)12-DGCR8Δ complex) | also measured |
| --- | --- | --- | --- | --- | --- | --- | --- | --- | --- | --- | --- | --- | --- |
| Cc1c2cc[n+](CCN3CCCCC3)cc2c(C)c2c1[nH]c1ccc(O)cc12 [1a, 9-hydroxy-5,11-dimethyl-2-(2-(piperidin-1-yl)ethyl)-6H-pyrido[4,3-b]carbazol-2-ium] | 66.9 ± 0.7 | 20.4 ± 0.8 | 85 ± 1 | 20.1 | 13 ± 0.4 | 3.84 ± 0.3 | 12 | not to effect splicing; also recorded: non-effect | not to effect splicing; also recorded: non-effect | improves SMN2 pre-mRNA splicing defects | 0.076 ± 0.004 |  | Bcl-x splicing ([1]; 100 μM): Statistically significant improvement; Bcl-x splicing ([1]; 500 μM): restoration of wild type splicing patterns; Bcl-x pre-mRNA splicing defects, in words ([1]; COS7 cells expressing 60 r(CGG) repeats): improves Bcl-x pre-mRNA splicing defects; effect on Bcl-x splicing [1, 6]: No statistically significant effect; size and number of r(CGG)^exp nuclear foci / aggregates (r(CGG)^exp nuclear foci): reduces the size and the number of foci; also recorded: reduced formation of r(CGG)^exp aggregation; also recorded: decreases r(CGG)^exp-protein aggregates; effect on cTNT alternative splicing [2, 11]: did not affect; effect on PLEKHH2 alternative splicing [3, 11]: did not affect; SMN2 pre-mRNA splicing level ([4]; 100 μM, COS7 cells expressing r(CGG)60): approximately 70 % of wild type; SMN2 pre-mRNA splicing ([4]; 500 μM, COS7 cells expressing r(CGG)60): restores pre-mRNA splicing to levels wild type; concentration at which improvement of SMN2 splicing defects can be observed ([4]; COS7 cells expressing r(CGG)60): 20 µM; concentration required for the same effect relative to 2E-5NMe ([4]; SMN2 splicing restored to wild type): 10 times; effect on SMN2 splicing [4, 6]: No statistically significant effect; binding to DGCR8Δ (DGCR8Δ): very little binding; amount of ligand partitioned into fully paired RNAs relative to r(CGG)12 (fully paired RNAs): less than half; binding to r(CGG)12 (r(CGG)12): binds tightly |
| Cc1c2cc[n+](C)cc2c(C)c2c1[nH]c1ccc(O)cc12 [1d, elliptinium] |  |  | 87 ± 5 |  | 7 ± 0.2 |  |  |  |  |  | 0.05 ± 0.018 |  |  |
| Cc1c2ccncc2c(C)c2c1[nH]c1ccc(O)cc12 [1e, 9-hydroxyellipticine] |  |  | 46 ± 5 |  | ~25 |  | ~25 |  |  |  |  | markedly decreased |  |
| Cc1c2cc[n+](Cc3cn(CCCNCC(=O)N(C)C(C)C(=O)N(C)C(C)C(=O)N(C)C(C)C(=O)N(C)C(C)C(=O)N(C)C(C)C(=O)N(CCCn4cc(C[n+]5ccc6c(C)c7[nH]c8ccc(O)cc8c7c(C)c6c5)nn4)CC(N)=O)nn3)cc2c(C)c2c1[nH]c1ccc(O)cc12 (stereo not shown) [2E-5NMe] | 39.6 ± 0.6 | 5.0 ± 2.6 |  | 3.52 |  | 0.47 ± 0.08 |  | does not affect | does not affect | reduction of pro-mRNA splicing defects |  | the most potent compound | potency relative to the monomer 1a (r(CGG)12-DGCR8Δ complex; IC50 ratio): ~8 fold; r(CGG)12-DGCR8D complex inhibited (r(CGG)12-DGCR8Δ complex; at 1 mM (so in the source)): 60%; r(CGG)12-DGCR8D complex inhibited (r(CGG)12-DGCR8Δ complex; at 10 mM (so in the source)): 95%; concentration that restores alternative pre-mRNA splicing patterns back to the wild type ([4]; SMN2, COS7 cells with r(CGG)60, 24 h): 50 mM; effect on alternative splicing in healthy cells ([4]; cells without r(CGG)60): does not affect |
